Patent publication US20210228566A1, “METHODS OF TREATING A NEUROLOGICAL OR PSYCHIATRIC DISORDER” (priority 2018, published 2021)

Key:
human VMAT1 transporter = target: T1, human VMAT1 transporter (Homo sapiens, UniProt P54219); test: uptake in cells expressing VMAT1; format: cell-based; details: for inhibitory activity on uptake through VMAT1: concentrations up to 10 μM
T1 construct: expressed in transfected cells
T1 sequence (P54219 1-525): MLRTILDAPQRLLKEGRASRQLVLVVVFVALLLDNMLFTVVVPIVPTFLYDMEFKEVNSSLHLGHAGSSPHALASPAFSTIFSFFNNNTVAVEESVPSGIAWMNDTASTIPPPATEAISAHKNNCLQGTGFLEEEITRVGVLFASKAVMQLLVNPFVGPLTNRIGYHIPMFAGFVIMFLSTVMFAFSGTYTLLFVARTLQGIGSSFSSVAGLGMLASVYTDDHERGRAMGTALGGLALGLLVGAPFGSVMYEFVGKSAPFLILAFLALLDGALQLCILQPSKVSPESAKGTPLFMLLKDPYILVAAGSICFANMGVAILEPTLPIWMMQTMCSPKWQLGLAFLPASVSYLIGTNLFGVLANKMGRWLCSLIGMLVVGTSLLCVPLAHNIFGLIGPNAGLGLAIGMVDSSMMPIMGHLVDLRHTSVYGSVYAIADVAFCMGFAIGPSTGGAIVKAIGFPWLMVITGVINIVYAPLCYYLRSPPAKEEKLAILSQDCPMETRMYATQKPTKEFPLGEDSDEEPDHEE
Method: None of the TBZ or VBZ metabolites had any affinity for the monoamine transporters DAT, SERT or NET. To complete the selectivity profile for VMAT2, the functional activity for the human VMAT1 transporter of these compounds was tested in cells expressing VMAT1.

[1] = plasma concentrations of circulating metabolites; format: in vivo; details: after VBZ
[2] = ptosis, in vivo surrogate measure
[3] = case reports of hypersensitivity and dermatological reactions; format: in vivo, human
Text: A total of 17 cases of hypersensitivity reaction and/or dermatological findings and evidence for possible causal relationship with VBZ have been reported either spontaneously (6) or after solicitation (11). Of these 17 cases, 14 cases had both hypersensitivity reaction with dermatological findings (5 were serious and 9 were non-serious).
In these 14 cases, there was a reasonable temporal relationship between the initiation of the drug and the onset of events. In 1 case, both dechallenge and rechallenge was positive. In 2 cases, the events worsened when the drug was continued and the events resolved on discontinuation of VBZ. In 3 cases, dechallenge was considered as positive. In 7 cases, the event resolved or was resolving following discontinuation of drug and receiving appropriate treatment, implying a causal association. Additionally, among these 7 cases, there was 1 case in which the event re-occurred on readministration of the drug. In the remaining 1 case, the events started immediately after starting VBZ, the subject continued taking VBZ and the event continued; therefore, a causal association between the drug and the event could not be ruled out.
Of the 17 cases, there were 2 cases in which the patients experienced hypersensitivity reaction with evidence for a possible causal relationship with VBZ, but without dermatological findings. Both these cases were non-serious. In 1 case, dechallenge was positive and in another case, the event re-occurred with their second dose of drug, implying a causal association between the drug and the events.
Of the 17 cases, there was 1 case in which the patient experienced only dermatological findings with evidence for a possible causal relationship to VBZ, but without evidence of other hypersensitivity reaction. This case was non-serious and dechallenge was positive in this case. In view of the information reported in these 17 cases there appears to be a possible causal relationship between the events and administration of VBZ. […] 2017.
Based on the case reports received through 10 Oct.

[4] = prolactin release, in vivo surrogate measure

SMILES	inhibitory activity on uptake through VMAT1 (human VMAT1 transporter)	non-serious cases with hypersensitivity reaction and dermatological findings ([3]; of the 14 cases)	serious cases with hypersensitivity reaction and dermatological findings ([3]; of the 14 cases)	cases with both hypersensitivity reaction with dermatological findings ([3]; of the 17 cases)	cases of hypersensitivity reaction without dermatological findings ([3]; of the 17 cases, non-serious)	cases with only dermatological findings ([3]; of the 17 cases, non-serious)	cases of hypersensitivity reaction and/or dermatological findings with evidence for possible causal relationship ([3]; reported spontaneously (6) or after solicitation (11), through 10 Oct. 2017)	effect on uptake through VMAT1 (human VMAT1 transporter)	plasma half-life of metabolite [1]	ptosis [2]	severe hypersensitivity or dermatological reactions suggesting Stevens Johnson Syndrome, Toxic Epidermal Necrolysis, or Drug Rash with Eosinophilia and Systemic Symptoms ([3]; through 10 Oct. 2017)	serum prolactin levels [4]
COC(=O)[C@H]1[C@H]2C[C@@H]3c4[nH]c5cc(OC)ccc5c4CCN3C[C@H]2C[C@@H](OC(=O)c2cc(OC)c(OC)c(OC)c2)[C@@H]1OC [reserpine, reference compound]								substantially inhibited uptake through VMAT1				
COc1cc2c(cc1OC)[C@H]1C[C@@H](O)[C@H](CC(C)C)CN1CC2 [R,R,R-DHTBZ, (2R, 3R,11bR)-3-isobutyl-9,10-dimethoxy-1,3,4,6,7,11b-hexahydro-2H-pyrido[2,1-a]isoquinolin-2-ol]	no significant inhibitory activity							no significant effect on the uptake of monoamines through VMAT1	half-lives similar to VBZ	induced ptosis in an equivalent manner		induced a similar increase in serum prolactin levels as TBZ

Second part, led by results:

inhibitory activity on uptake through VMAT1 (human VMAT1 transporter)	non-serious cases with hypersensitivity reaction and dermatological findings ([3]; of the 14 cases)	serious cases with hypersensitivity reaction and dermatological findings ([3]; of the 14 cases)	cases with both hypersensitivity reaction with dermatological findings ([3]; of the 17 cases)	cases of hypersensitivity reaction without dermatological findings ([3]; of the 17 cases, non-serious)	cases with only dermatological findings ([3]; of the 17 cases, non-serious)	cases of hypersensitivity reaction and/or dermatological findings with evidence for possible causal relationship ([3]; reported spontaneously (6) or after solicitation (11), through 10 Oct. 2017)	SMILES	effect on uptake through VMAT1 (human VMAT1 transporter)	plasma half-life of metabolite [1]	ptosis [2]	severe hypersensitivity or dermatological reactions suggesting Stevens Johnson Syndrome, Toxic Epidermal Necrolysis, or Drug Rash with Eosinophilia and Systemic Symptoms ([3]; through 10 Oct. 2017)	serum prolactin levels [4]
no significant inhibitory activity							COc1cc2c(cc1OC)[C@H]1C[C@@H](OC(=O)[C@@H](N)C(C)(C)O)[C@H](CC(C)C)CN1CC2 [NBI-136110]	no significant effect on the uptake of monoamines through VMAT1	half-lives similar to VBZ			
no significant inhibitory activity							COc1cc2c(cc1OC)C1CC(=O)C(CC(C)C)CN1CC2 (stereo not shown) [TBZ, Tetrabenazine, reference compound]	no significant effect on the uptake of monoamines through VMAT1		induced ptosis in an equivalent manner		
no significant inhibitory activity	9 cases	5 cases	14 cases	2 cases	1 case	17 cases	COc1cc2c(cc1OC)[C@H]1C[C@@H](OC(=O)[C@@H](N)C(C)C)[C@H](CC(C)C)CN1CC2 [Valbenazine, (S)-2-amino-3-methyl-butyric acid (2R, 3R,11bR)-3-isobutyl-9,10-dimethoxy-1,3,4,6,7,11b-hexahydro-2H-pyrido[2,1-a]isoquinolin-2-yl ester]	no significant effect on the uptake of monoamines through VMAT1		induced ptosis in an equivalent manner	no cases	
